In the NIST ThermoML archive (doi:10.1016/j.tca.2018.10.026):
Numbers after ± are expanded uncertainties.

Assay: Molar enthalpy of transition or fusion
Settings: Crystal; DSC

O.O.O.O.O.O.[Br-].[Br-].[Ca+2] [calcium bromide hexahydrate]
Molar enthalpy of transition or fusion: 44 ± 0.92 kJ/mol
